In patent US8008258B2, “Cop 1 for treatment of inflammatory bowel diseases” (Yeda Research and Development Co. Ltd., priority 2003, dated 2011):
Marks after values point to notes of the source that are not given here.

How the values were obtained:
[1] = test system: TNBS-induced colitis; experiment: TNBS-induced colitis in BALB/c mice, oral GA treatment; format: in vivo; design: key to Macroscopic scoring of colon damage: Ulceration (max 10): 0 = completely normal, 10 = most severe ulceration; key to Macroscopic scoring of colon damage: Adhesion (max 2): adhesions score 0 to 2; key to Macroscopic scoring of colon damage: Diarrhea (max 1): diarrhea score 0 to 1; key to Macroscopic scoring of colon damage: Thickness (max 1): thickness score 0 to 1
Procedure: Induction of cholitis in mice. TNBS-colitis was induced by rectal instillation of 2,4,6-trinitrobenzene sulfonic acid 5% (w/v), mixed with an equal volume of ethanol, into anesthetized mice (100 μl/mouse). Each treatment group included 6-12 mice. Mice that died before day 4 were considered as treatment casualties and were not taken into consideration.
Assessment of colitis. Weight changes and survival were monitored daily. Five to eight days following TNBS instillation, mice were sacrificed and macroscopic as well as microscopic colonic damage was evaluated.
Macroscopic colonic scoring. Gross colonic damage was graded according to Reuter et al. (1996), using the combined values of the four standard macroscopic parameters: degree of colonic ulcerations (scale from 0—completely normal, to 10—most severe); intestinal and peritoneal adhesions (0 to 2); diarrhea (0 to 1); and thickness (0 to 1). The total score is the arithmetic sum of the four scores. The evaluation was performed in a blind procedure.
Microscopic scoring. Proximal, medial, and distal portions of colon were fixed in 10% phosphate-buffered formalin. Paraffin-embedded sections were stained with hematoxylin and eosin. The degree of histological damage and inflammation was graded according to Elson et al. (1996) using the combined values of the four microscopic parameters: extent (scale from 0—completely normal, to 2—involving more than one segment); inflammation (0—none to 3—severe); damage (0 to 3—severe transmural); and regeneration (0—complete re-eptihelization to 3—none). The total score is the arithmetic sum of the four scores. The evaluation was performed in a blind procedure.
Oral treatment—250 μg/day in PBS, fed by gastric intubation with an 18-gauge stainless steel feeding needle. Unless otherwise stated, feedings were performed on days-7, -5, -3, -1, 0, 2, 4 and 6, relative to the day of TNBS instillation.
Colitis was induced by TNBS in 50% ethanol. […] Colonic scoring was performed 7 or 8 days after disease induction. Mice that died during the first 2 days (usually around 20% in all groups) were considered as treatment casualties and thus are not presented; each group contained 4-7 mice that survived after day 2.

[2] = test system: TGF-β secretion by spleen and MLN cells; experiment: TGF-β secretion by spleen and MLN cells (ELISA); format: cell-based; details: colitis-induced BALB/c mice treated with GA; anti-CD3 stimulation
Procedure: FIGS. 6A-6B show the effect of GA treatment on TGF-β secretion by lymphocytes of TNBS-induced BALB/c mice. Cells of spleen or mesenteric lymph nodes (MLN) from normal mice, colitis-induced mice, and colitis-induced mice treated with GA were cultured either with GA (50 μg/ml) (FIG. 6A) or immobilized anti-CD3 (5 μg/ml) (FIG. 6B). After 72 hours, supernatants from six culture wells were pooled and TGF-β was measured by ELISA in duplicates. Results are expressed as TGF-β concentration (pg/ml±1 SD) and represent one of two similar experiments, using pooled cells from 3-5 mice in each group. # Indicates significant decrease in TGF-β in colitic mice in comparison to normal mice. * Indicates significant increase in TGF-β induced by GA treatment in comparison to untreated colitis induced mice.
Reactivity assays. Spleens and mesenteric lymph nodes (MLN) cells (0.5×10^6 cell/well) were cultured with either GA (50 μg/ml), colon extract (200 μg/ml), immobilized anti-CD3 (5 μg/ml), or PBS control, in a final volume of 250 μl/well (6 wells for each antigen). For proliferation assay, cells were cultured in RPMI 1640 with 10% FCS, pulsed with 1 μCi of [3H] thymidine after 48 h incubation, and harvested 12 h later. […]

[3] = test system: DSS-induced colitis; experiment: Dextran sulfate sodium (DSS)-induced colitis in C57BL/6 mice; format: in vivo; details: GA 2.5 mg/day SC daily, by day 7 after DSS feeding, preliminary experiment
Procedure: Feeding mice for several days with dextran sulfate sodium (DSS) polymers in the drinking water induces an acute colitis with bloody diarrhea, histological damage, and inflammation (Wirtz and Neurath, 2000).
Female C57BL/6, 7 weeks old mice, were fed with 2.5% DSS solution in the drinking water for 7 days. GA was administered subcutaneously by daily injections—2.5 mg/day, in PBS, starting either 7 days before or in the same day of DSS feeding.

[4] = Average of three experiments, GA oral 250 μg/mouse every other day from day −7, scoring 7 or 8 days after induction
[5] = Exp. No. 1, GA oral 250 μg/mouse every other day from day −7, scoring 7 or 8 days after induction
[6] = Exp. No. 2, GA oral 250 μg/mouse every other day from day −7, scoring 7 or 8 days after induction
[7] = Exp. No. 3, GA oral 250 μg/mouse every other day from day −7, scoring 7 or 8 days after induction
[8] = GA no colitis (GA oral without TNBS induction)
[9] = Timing study, GA oral 250 μg/mouse every other day starting day 0, 8 feedings
[10] = Timing study, GA oral 250 μg/mouse every other day starting day +2, 6 feedings
[11] = Timing study, GA oral 250 μg/mouse every other day starting day −3, 8 feedings
[12] = Timing study, GA oral 250 μg/mouse every other day starting day −7, 8 feedings

Q: Which results are given for glatiramer acetate [GA]?
A: Macroscopic scoring of colon damage: Adhesion (max 2) [1, 4]: 0.4; Macroscopic scoring of colon damage: Diarrhea (max 1) [1, 4]: 0.2; Macroscopic scoring of colon damage: Thickness (max 1) [1, 4]: 0.0; Macroscopic scoring of colon damage: Ulceration (max 10) [1, 4]: 2.1; Macroscopic scoring of colon damage: Adhesion (max 2) [1, 5]: 0.6; Macroscopic scoring of colon damage: Diarrhea (max 1) [1, 5]: 0.0; Macroscopic scoring of colon damage: Thickness (max 1) [1, 5]: 0.0; Macroscopic scoring of colon damage: Total Score (max 14) [1, 5]: 1.6*; Macroscopic scoring of colon damage: Ulceration (max 10) [1, 5]: 1.0; Macroscopic scoring of colon damage: Adhesion (max 2) [1, 6]: 0.5; Macroscopic scoring of colon damage: Diarrhea (max 1) [1, 6]: 0.5; Macroscopic scoring of colon damage: Thickness (max 1) [1, 6]: 0.0; Macroscopic scoring of colon damage: Total Score (max 14) [1, 6]: 4.4*; Macroscopic scoring of colon damage: Ulceration (max 10) [1, 6]: 3.4; Macroscopic scoring of colon damage: Adhesion (max 2) [1, 7]: 0.1; Macroscopic scoring of colon damage: Diarrhea (max 1) [1, 7]: 0.0; Macroscopic scoring of colon damage: Thickness (max 1) [1, 7]: 0.0; Macroscopic scoring of colon damage: Total Score (max 14) [1, 7]: 2.1*; Macroscopic scoring of colon damage: Ulceration (max 10) [1, 7]: 2.0; Macroscopic scoring of colon damage: Adhesion (max 2) [1, 8]: 0.0; Macroscopic scoring of colon damage: Diarrhea (max 1) [1, 8]: 0.0; Macroscopic scoring of colon damage: Thickness (max 1) [1, 8]: 0.0; Macroscopic scoring of colon damage: Total Score (max 14) [1, 8]: 0.0; Macroscopic scoring of colon damage: Ulceration (max 10) [1, 8]: 0.0; Reduction in disease severity (total macroscopic score) versus control ([1]; GA oral feedings started seven days before TNBS, total of 8 feedings every other day): 5.2 fold; Reduction in disease severity (total macroscopic score) versus control ([1]; GA oral treatment started on the day of TNBS inoculation, or two days after disease induction): 2.2 fold; Reduction in disease severity (total macroscopic score) versus control ([1]; GA oral treatment started three days before induction): 2.75 fold; Mortality due to the disease process ([1]; GA oral, 8 days after induction): 20%; Reduction of average histological score versus colitis group ([1]; GA oral, day 7, p=0.007): 2.8 folds; Average histological score (from a maximal score of 12.0) ([1]; GA oral, mice surviving till day 7): 2.8; Histological or macroscopic damage ([1]; GA treatment without TNBS induction): did not result in any histological or macroscopic damage; Macroscopic scoring of colon damage: Adhesion (max 2) [1, 9]: 0.7; Macroscopic scoring of colon damage: Diarrhea (max 1) [1, 9]: 0.0; Macroscopic scoring of colon damage: Thickness (max 1) [1, 9]: 0.0; Macroscopic scoring of colon damage: Total Score (max 14) [1, 9]: 5.0*; Macroscopic scoring of colon damage: Ulceration (max 10) [1, 9]: 4.3; Macroscopic scoring of colon damage: Adhesion (max 2) [1, 10]: 0.3; Macroscopic scoring of colon damage: Diarrhea (max 1) [1, 10]: 0.0; Macroscopic scoring of colon damage: Thickness (max 1) [1, 10]: 0.0; Macroscopic scoring of colon damage: Total Score (max 14) [1, 10]: 5.0*; Macroscopic scoring of colon damage: Ulceration (max 10) [1, 10]: 4.7; Macroscopic scoring of colon damage: Adhesion (max 2) [1, 11]: 0.5; Macroscopic scoring of colon damage: Diarrhea (max 1) [1, 11]: 0.0; Macroscopic scoring of colon damage: Thickness (max 1) [1, 11]: 0.0; Macroscopic scoring of colon damage: Total Score (max 14) [1, 11]: 4.0*; Macroscopic scoring of colon damage: Ulceration (max 10) [1, 11]: 3.5; Macroscopic scoring of colon damage: Adhesion (max 2) [1, 12]: 0.1; Macroscopic scoring of colon damage: Diarrhea (max 1) [1, 12]: 0.0; Macroscopic scoring of colon damage: Thickness (max 1) [1, 12]: 0.0; Macroscopic scoring of colon damage: Total Score (max 14) [1, 12]: 2.1*; Macroscopic scoring of colon damage: Ulceration (max 10) [1, 12]: 2.0; Decrease of total macroscopic damage versus control ([1]; average of three experiments, GA oral 250 μg/mouse, alternate days from day −7, 8 feedings): 3.8 fold; Macroscopic grade of representative colons (FIG. 1A) ([1]; colons from two TNBS-induced mice treated orally with GA (0.25 mg/mouse, 8 feedings), 7 days after TNBS, focal hyperemia only): 1; Maximum weight loss (of body weight) ([1]; mice fed with GA, by day 3 after TNBS inoculation): 5%; Complete restoration of original weight ([1]; mice fed with GA, day after TNBS inoculation): ≤ 5 days; TGF-β secretion in the MLN relative to the secretion of normal mice [2]: 2.2 folds; Maximum weight loss ([3]; injected from day 0): 4%; Maximum weight loss ([3]; injected from day −7): 7%
